Bounds are passed on as bounds.

The test system of one data set is human cancer cell lines. As to the kind of experiment: MTT assay, summary over all cell lines. To be noted: all cell lines of Table 1, 72 h, read-out: range of IC50 over the different cell lines. Type of data set: cell-based. How it is done: Applicants used the MTT assay to test the inhibitory effect of Sepin-1 on the growth of a variety of human cancer cell lines, including leukemia, breast cancer and neuroblastoma.
The inhibitory effect of Sepin-1 on cell growth was assayed using the 3-(4,5-dimethylthiazol-2yl)-2,5-diphenyl-tetrazolium bromide (MTT) colorimetric dye reduction method (Cancer Chemother. Pharmacol., 2006, 58, 13-23). One hundred thirty-five μl of exponentially growing cancer cells were plated at a density of 0.4-1.0×10^5 cells/well in a 96-well microtiter plate. After 16 h, Sepin-1 at specified concentrations was added to each well. After 72 h of continuous drug exposure, 15 μl of 5 mg/ml MTT was added to each well and the plates were incubated for 4 h at 37° C. Medium was replaced with 150 μl of DMSO to solubilize the formazan, and the optical density (OD) was measured at 550 nm using a microplate spectrophotometer (Anthos Analytical, Durham, N.C., USA). Cell viability was calculated by subtracting the background OD of media alone from the OD of test wells, then dividing by the OD of the control (untreated) wells. Replicates of 3 wells were used for each drug concentration. The in vitro cytotoxicity assay was repeated once and the IC50 reported was the average of two independent experiments.
On the technique in general: Tetrazolium assays rely on reduction of a dye to a coloured formazan, in cell work by metabolically active cells.

The subject of the next data set is C57B6 mice. Nature of the data set: Toxicity of Sepin-1 in mice, single intravenous dose. It counts as in vivo. How it is done:
To investigate the toxicity in mice, Applicants injected Sepin-1 at a single dose in the range of 50-100 mg/kg body weight into C57B6 mice via tail vein.
Based on the above results, Applicants expanded this study to identify the Severely Toxic Dose (i.e., dose that causes death or irreversible severe toxicity, in 10% of rodents, STD10) using more mice injected at 75 to 90 mg/Kg range. A dose of 80 mg/Kg was estimated as STD10 for Sepin-1 in these mice.
To test Maximum Tolerated Dose (MTD) and No Observable Effect Level (NOEL) of Sepin-1, Applicants applied 200 μl Sepin-1 (diluted in PBS) one time at an acute dose range of 50 to 100 mg/kg body weight to 8-10 weeks old C57B6 mice (˜25 g) through intravenous tail vein injection (n=3/group). Except for the MTD dose, after Sepin-1 injection, the mice were returned to the cage and their reaction to the drug was monitored from one week to several months. Complete necropsy, blood chemistry and pathology of the Sepin-1 injected mice were carried out by the Comparative Pathology Laboratory at the Baylor College of Medicine.

For the next data set, the system named is MCF7 xenografts. Nature of the data set: Growth inhibition of MCF7 xenograft tumors. Type of data set: in vivo, SCID-beige mice. How it is done: For treatment studies, MCF7 xenografts (ER+ PR+ HER2−) were generated by injection of one million cultured cells grown under standard in vitro conditions as previously described (Proc. Natl. Acad. Sci. U. S. A 105, 2008, 13033-13038). Donor tumors for PDX lines MC1 and BCM-5471 were divided into small fragments and retransplanted into the fat pat of recipient SCID Beige mice (5 mice per group). When the tumors reached approximately ˜200 mg, mice were treated with either vehicle or Sepin-1. Sepin-1 was injected at dose of 10 mg/kg daily for 5 days a week for 3 weeks. […] Vehicle injected mice served as controls. Size of the xenografts were measured every four days using calipers and tumor weight was estimated using the guidelines by NCI for xenograft evaluation (http://ncifrederick.cancer.gov/Lasp/Acuc/Frederick/Media/Documents/ACUC14.pdf). After 3 weeks treatment, the tumors were harvested and fixed in 10% Buffed Formalin Phosphate (Fisher Scientific, Pittsburgh, Pa.) overnight. The tumor tissues were washed with PBS for 3×30 min; dehydrated for 1 h at 70%, 80%, 90% and 100% two times; and immerged in Xylene several times until the tissues became clear. The samples were embedded in wax and sectioned with 5 μm in thickness. All mice were maintained in accordance with the NIH Guide for the Care and Use of Laboratory Animals with approval from the Baylor College of Medicine Institutional Animal Care and Use Committee.

Data set [1] has as its system pediatric GBM tumor (#4687) orthotopic xenograft. As to the kind of experiment: Survival analysis, orthotopic xenograft of pediatric GBM tumor. Type of data set: in vivo, SCID-beige mice. As to conditions: 10 mg/kg daily ip, 5 days a week, 4 weeks, n=6/group. How it is done:
FIG. 10 provides data relating to separase overexpression in Pediatric glioblastoma (GBM) and the effect of Sepin-1 in inhibiting the growth of glioblastoma cells in vitro and in vivo. […] SCID-beige mice after two weeks of transplantation were treated at a dose of 10 mg/kg daily ip for 5 days a week for 4 weeks with either Sepin-1 or vehicle (n=6/group).

The subject of the next data set is Molt4 cells. As to the kind of experiment: Immunoblotting for apoptosis induction. It counts as cell-based, human. As to conditions: various concentrations of Sepin-1, 24 h, Western blot. On the procedure: To determine the mechanism of cell growth inhibition induced by Sepin-1, Applicants performed immunoblotting to investigate if apoptosis is induced after Molt4 cells were treated with Sepin-1. Activation of caspase-3 and cleavage of poly(ADP-ribose) polymerase (Parp-1) are two commonly used parameters in determination of apoptosis. Applicants used Etoposide as a positive control, which is a well-known chemotherapy agent that induces DNA damage by interacting with topoisomerase II. […] In addition, Applicants observed that the effect of Sepin-1 on the activation of caspase-3 and degradation of Parp-1 is similar to that of Etoposide (FIG. 8F).
Preparation of protein samples and Western blot were performed as described previously (J Cell Biol, 2008, 183, 1019-1031; PLoS. ONE., 2013, 8, e69458).

Setting [2] is: <80 mg/kg single dose via tail vein.
Setting [3] is: MCF7 xenograft tumors treated with Sepin-1 versus vehicle.

Take `CC1(C)[N+]([O-])=c2ccc([N+](=O)[O-])cc2=[N+]1[O-]` [Sepin-1, 2,2-dimethyl-5-nitro-2H-benzimidazole-1,3 dioxide]: in the data set on human cancer cell lines, the IC50 – broadly, the concentration at which inhibition is half-maximal – is at least 1000 nM. Further, the “time to death after injection” value with C57B6 mice (90 mg/kg single dose via tail vein) was in the range of 30 to 90 min. In addition, in the data set on C57B6 mice (setting [2]), the “effect of dose <80 mg/kg” value is given as “no apparent effect” and the survival after injection entry is given as “over 6 months”. In the data set on C57B6 mice (mice injected at 75 to 90 mg/Kg range), the “Severely Toxic Dose in 10% of rodents (STD10)” value was 80 mg/kg. For the same compound, in the data set on C57B6 mice (mouse, in vivo), the “histopathology of major organs” value is listed as “no significant lesions in major organs”. In the data set with MCF7 xenografts (10 mg/kg daily, 5 days a week, 3 weeks), the “growth of MCF7 xenograft tumors” value is recorded as “inhibits the growth of xenograft tumor derived from MCF-7”. Also, in the data set with MCF7 xenografts (setting [3]), the “apoptotic bodies in H&E stained tumor sections” value is listed as “increase of apoptotic bodies” and the “cleaved caspase-3 staining of tumor sections” value is “significantly increased”. Moreover, the “life span of treated mice” value in data set [1] is on record as “significant increase in the life span”. Moreover, in the data set on Molt4 cells, the “activation of caspase-3” value is “caspase-3 proenzyme was induced and activated”; the “cleavage of poly(ADP-ribose) polymerase (Parp-1)” value is reported as “Parp-1 cleavage”.

(Values after patent US10052310B2, “Separase inhibitors and uses thereof” (Baylor College of Medicine, priority 2013, dated 2018).)
